According to patent US4877782A, “Zinc ceftiofur complexes” (The Upjohn Company, priority 1988, dated 1989):
Counter-ions that a name gives are not always drawn. Like-named read-outs stand apart in the source and are kept apart here.

Key:
[1] = system: Salmonella typhimurium UC6164; assay: standard mouse challenge test against Salmonella typhimurium UC6164 (survival, ED50); type: in vivo; details: for ED50: mice, s.c., adjusted for drug potency, 95% confidence limits
Description: (§1) Each test compound was suspended or dissolved in sterile Vehicle 122 (0.025% carboxymethylcellulose in water) to a starting test concentration sufficient to provide in the first set of test animals a concentration of the test drug of 2 mg./kg. Portions of each such test drug formulation were diluted seriatim 50:50 v/v with water to reduce the concentration of the test drug in the test animal to 1 mg./kg., then to 0.5 mg./kg., to 0.25 mg./kg. and finally to 0.125 mg./kg. Sets of mice were injected with the test dilutions of the test drugs subcutaneously once or three times after injecting challenge doses lethal doses of one of the above-named bacterial organisms. The sets of animals were observed over six days to determine the number of surviving mice. The mortality ratios were noted and the ED50 values were calculated for each test drug by standard methods.

[2] = system: Pasteurella multocida UC9581; assay: standard mouse challenge test against Pasteurella multocida UC9581 (survival, ED50); type: in vivo; details: for ED50: mice, s.c., adjusted for drug potency, 95% confidence limits
Description: as §1

[3] = dissolution rate in water; type: physicochemical; details: for percent in aqueous solution in 20 minutes: ceftiofur hydrochloride unmicronized
bulk density = type: physicochemical
[4] = dispersibility in water, organic solvents and vegetable oils; type: physicochemical; details: in words
[5] = 20 minutes, comparable equilibration conditions
[6] = zinc ceftiofur hydrochloride vs. non-complexed hydrochloride salt
[7] = mouse challenge, in words, from ED50 numbers of Table I

Row | Compound | ED50 ([1]; Salmonella enterica, sc, 144 h, UC6164, 579 LD50's, 1X treatment, read-out: ED50) [mg/kg] | ED50 ([1]; Salmonella enterica, sc, 144 h, UC6164, 1000 LD50's, 1X treatment, read-out: ED50) [mg/kg] | ED50 ([1]; Salmonella enterica, sc, 144 h, UC6164, 1000 LD50's, 3X treatments, read-out: ED50) [mg/kg] | ED50 ([2]; Pasteurella multocida, sc, 144 h, UC9581, 27 LD50's, 3X treatments, read-out: ED50) [mg/kg] | percent in aqueous solution in 20 minutes [3, 5] [%] | bulk density (bulk density; [6]) | distribution in pharmaceutical aqueous vehicle formulations [4] | ED50 ([1]; UC6164, 1000 LD50's, 1X treatment, 8640 min, listed as C--Na) [mg/kg/day] | solubility in water after 20 minutes ([3]; 20 minutes, comparable equilibration conditions, zinc complex unmicronized) [%] | dissolution rate curves (percent dissolved over time) ([3]; in words, compared with sodium ceftiofur and ceftiofur hydrochloride) | bulk density (bulk density; zinc ceftiofur sodium complex from water vs. ceftiofur sodium salt) [g/mL] | ED50 ([1]; UC6164, 579 LD50's, 1X treatment, 8640 min) [mg/kg/day] | ED50 ([1]; UC6164, 1000 LD50's, 1X treatment, 8640 min) [mg/kg/day] | ED50 ([1]; UC6164, 1000 LD50's, 3X treatments, 8640 min) [mg/kg/day] | antibiotic protection [1, 7] | ED50 ([2]; UC9581, 27 LD50's, 3X treatments, 8640 min) [mg/kg/day] | ED50 ([2]; UC9581, 303 LD50's, 1X treatment, 8640 min) [mg/kg/day] | antibiotic protection [2, 7] | rate of dissolution ([3]; in words, compared to ceftiofur hydrochloride) | dispersibility in water and in common pharmaceutical organic solvents and vegetable oils ([4]; granular powders)
1 | CO/N=C(\C(=O)N[C@@H]1C(=O)N2C(C(=O)O)=C(CSC(=O)c3ccco3)CS[C@H]12)c1csc(N)n1 [ceftiofur hydrochloride] | 1.7 | 1.3 | 2.3 | 0.3 | 74 | 0.15 g/mL | less well adapted for distribution in pharmaceutical aqueous vehicle formulations | – | – | – | – | – | – | – | – | – | – | – | – | –
2 | CO/N=C(\C(=O)N[C@@H]1C(=O)N2C(C(=O)O)=C(CSC(=O)c3ccco3)CS[C@H]12)c1csc(N)n1 [ceftiofur sodium] | – | – | – | – | – | – | – | 1.1 | 100 | dissolves quite quickly in water | 0.11 | – | – | – | – | – | – | – | – | –
3 | zinc ceftiofur hydrochloride complex [Compound II] | – | – | – | – | 48 | about 0.24 g./ml. | – | – | – | – | – | 1.0 | 3.3 | 2.1 | potent antibiotic protection | 0.4 | 0.3 | potent antibiotic protection | much slower compared to ceftiofur hydrochloride | readily dispersible in water
